For series [1], the system named is Hepatotoxicity. Nature of the series: Literature-mined compound from Fourches et al multi-species drug-induced liver injury (DILI) dataset, effect in rodents. The settings on record: rodentia.
Series [2] has as its system Hepatotoxicity. In words: Literature-mined compound from Fourches et al multi-species drug-induced liver injury (DILI) dataset, effect in humans. The following applies: human.
In series [3] the test system is Hepatotoxicity. Nature of the series: Literature-mined compound from Fourches et al multi-species drug-induced liver injury (DILI) dataset, effect in non-rodents.

Each structure is given as a SMILES string. *1 amine or outer side, *2 acyl side, *3 side chain or, on linkers, in order; H or OH if unused. Where a SMILES comes first, the peptide text is derived from it. Bridges are numbered along the chain shown (N, C = ends). Roman numbers before positions name the chains, in order. [ ]: non-standard residue; d: D form. Actinocin(9to1) = Cc1c2oc3c(C)ccc(C(=O)[*:1])c3nc-2c(C(=O)[*:2])c(N)c1=O; NMeV = CN[C@H](C(=O)O)C(C)C; Sar = CNCC(=O)O

`CCc1cc2c(s1)N(C)C(=O)CN=C2c1ccccc1Cl` [CLOTIAZEPAM]: the figures for the Hepatotoxicity entry in the series on Hepatotoxicity [1], with Hepatotoxicity [2] and in the series on Hepatotoxicity [3] were “no drug-induced liver injury reported”, “drug-induced liver injury reported” and “no drug-induced liver injury reported”, respectively.
`Clc1ccccc1C(c1ccccc1)(c1ccccc1)n1ccnc1` [CLOTRIMAZOLE]: the Hepatotoxicity entry is “drug-induced liver injury reported” in the series on Hepatotoxicity [1], “no drug-induced liver injury reported” in the series with Hepatotoxicity [2] and “no drug-induced liver injury reported” in the series on Hepatotoxicity [3].
With `CN1CCN(C2=Nc3cc(Cl)ccc3Nc3ccccc32)CC1` [CLOZAPINE], the Hepatotoxicity result is recorded as “no drug-induced liver injury reported” with Hepatotoxicity [1], “drug-induced liver injury reported” with Hepatotoxicity [2] and “no drug-induced liver injury reported” with Hepatotoxicity [3].
Consider `COC(=O)[C@H]1[C@@H](OC(=O)c2ccccc2)C[C@@H]2CC[C@H]1N2C` [COCAINE], for which the Hepatotoxicity result with Hepatotoxicity [1] was “drug-induced liver injury reported”; with Hepatotoxicity [2], “drug-induced liver injury reported”; with Hepatotoxicity [3], “no drug-induced liver injury reported”.
For `COc1ccc2c3c1O[C@H]1[C@@H](O)C=C[C@H]4[C@@H](C2)N(C)CC[C@@]341` [CODEINE], the Hepatotoxicity result is on record as “drug-induced liver injury reported” with Hepatotoxicity [1] (Liver), “drug-induced liver injury reported” with Hepatotoxicity [2] (Liver) and “no drug-induced liver injury reported” in the series with Hepatotoxicity [3] (Liver).
On to `COc1cc2c(c(OC)c1OC)-c1ccc(OC)c(=O)cc1[C@@H](NC(C)=O)CC2` [COLCHICINE], for which the Hepatotoxicity result in the series on Hepatotoxicity [1] is listed as “drug-induced liver injury reported”; in the series on Hepatotoxicity [2], “drug-induced liver injury reported”; in the series on Hepatotoxicity [3], “no drug-induced liver injury reported”.
On to `Nc1ncnc2c1ncn2[C@@H]1O[C@H](CO)C[C@H]1O` [CORDYCEPIN], for which the Hepatotoxicity result with Hepatotoxicity [1] is listed as “drug-induced liver injury reported”; in the series with Hepatotoxicity [2] it was “no drug-induced liver injury reported”; with Hepatotoxicity [3], “no drug-induced liver injury reported”.
`CC(=O)OCC(=O)[C@@]1(O)CC[C@H]2[C@@H]3CCC4=CC(=O)CC[C@]4(C)[C@H]3C(=O)C[C@@]21C` [CORTISONE ACETATE]: the Hepatotoxicity result was “drug-induced liver injury reported” with Hepatotoxicity [1], “no drug-induced liver injury reported” with Hepatotoxicity [2] and “no drug-induced liver injury reported” with Hepatotoxicity [3].
Regarding `CC1=C(CC(=O)NCc2ccccc2)c2cc(F)ccc2/C1=C\c1ccncc1.Cl` [CP-461], the Hepatotoxicity result is recorded as “no drug-induced liver injury reported” with Hepatotoxicity [1], “drug-induced liver injury reported” in the series with Hepatotoxicity [2] and “no drug-induced liver injury reported” in the series on Hepatotoxicity [3].
For `CN(CC(=O)O)C(=N)N` [CREATINE], the values for the Hepatotoxicity result in the series with Hepatotoxicity [1], with Hepatotoxicity [2] and in the series on Hepatotoxicity [3] were “drug-induced liver injury reported”, “no drug-induced liver injury reported” and “no drug-induced liver injury reported”, respectively.
For the compound `COc1cc(/C=C/C(=O)CC(=O)/C=C/c2ccc(O)c(OC)c2)ccc1O` [CURCUMIN], the Hepatotoxicity entry in the series on Hepatotoxicity [1] is listed as “drug-induced liver injury reported”; in the series with Hepatotoxicity [2], “drug-induced liver injury reported”; in the series with Hepatotoxicity [3] it was “no drug-induced liver injury reported”.
On to `CC1CC(OC(=O)C(O)c2ccccc2)CC(C)(C)C1` (stereo unspecified) [CYCLANDELATE], for which the Hepatotoxicity result in the series on Hepatotoxicity [1] was “drug-induced liver injury reported”; in the series on Hepatotoxicity [2], “no drug-induced liver injury reported”; in the series on Hepatotoxicity [3], “no drug-induced liver injury reported”.
On to `CCC1(C2=CCCCC2)C(=O)NC(=O)NC1=O` [CYCLOBARBITAL], for which the Hepatotoxicity result is given as “drug-induced liver injury reported” in the series with Hepatotoxicity [1], “no drug-induced liver injury reported” with Hepatotoxicity [2] and “no drug-induced liver injury reported” with Hepatotoxicity [3].
On to `CCC(C(=O)O)C1(O)CCCCC1` (stereo unspecified) [CYCLOBUTYROL], for which the results for the Hepatotoxicity entry in the series with Hepatotoxicity [1], with Hepatotoxicity [2] and with Hepatotoxicity [3] were “drug-induced liver injury reported”, “no drug-induced liver injury reported” and “no drug-induced liver injury reported”, respectively.
Take `CC1=C2C[C@H]3[C@@H](CC=C4C[C@@H](O)CC[C@@]43C)[C@@H]2CC[C@]12O[C@@H]1C[C@H](C)CN[C@H]1[C@H]2C` [CYCLOPAMINE]: the results for the Hepatotoxicity entry in the series on Hepatotoxicity [1], in the series on Hepatotoxicity [2] and in the series with Hepatotoxicity [3] were “no drug-induced liver injury reported”, “drug-induced liver injury reported” and “no drug-induced liver injury reported”, respectively.
For the compound `O=P1(N(CCCl)CCCl)NCCCO1` (stereo unspecified) [CYCLOPHOSPHAMIDE ANHYDROUS], the Hepatotoxicity result in the series on Hepatotoxicity [1] (Liver) is “drug-induced liver injury reported”; in the series on Hepatotoxicity [2] (Liver), “drug-induced liver injury reported”; in the series with Hepatotoxicity [3] (Liver) it was “no drug-induced liver injury reported”.
Regarding `O=C(/C=C/c1ccc(O)c(O)c1)O[C@@H]1C[C@@](OC(=O)/C=C/c2ccc(O)c(O)c2)(C(=O)O)C[C@@H](O)[C@@H]1O` [CYNARIN], the Hepatotoxicity entry is “drug-induced liver injury reported” with Hepatotoxicity [1], “no drug-induced liver injury reported” in the series on Hepatotoxicity [2] and “no drug-induced liver injury reported” in the series on Hepatotoxicity [3].
Regarding `CN1CCC(=C2c3ccccc3C=Cc3ccccc32)CC1` [CYPROHEPTADINE], the Hepatotoxicity entry in the series with Hepatotoxicity [1] is reported as “drug-induced liver injury reported”; in the series on Hepatotoxicity [2], “drug-induced liver injury reported”; with Hepatotoxicity [3], “no drug-induced liver injury reported”.
Turning to `CC(=O)O[C@]1(C(C)=O)CC[C@H]2[C@@H]3C=C(Cl)C4=CC(=O)[C@@H]5C[C@@H]5[C@]4(C)[C@H]3CC[C@@]21C` [CYPROTERONE ACETATE], the Hepatotoxicity entry in the series on Hepatotoxicity [1] is “drug-induced liver injury reported”; in the series with Hepatotoxicity [2], “drug-induced liver injury reported”; in the series with Hepatotoxicity [3] it was “no drug-induced liver injury reported”.
Turning to `Nc1ccn([C@@H]2O[C@H](CO)[C@@H](O)[C@@H]2O)c(=O)n1` [CYTARABINE], the Hepatotoxicity entry with Hepatotoxicity [1] (Liver) was “drug-induced liver injury reported”; with Hepatotoxicity [2] (Liver) it was “drug-induced liver injury reported”; with Hepatotoxicity [3] (Liver) it was “no drug-induced liver injury reported”.
Consider `CN(C)/N=N/c1[nH]cnc1C(N)=O` [DACARBAZINE], for which the results for the Hepatotoxicity result in the series on Hepatotoxicity [1], in the series with Hepatotoxicity [2] and in the series on Hepatotoxicity [3] were “no drug-induced liver injury reported”, “drug-induced liver injury reported” and “no drug-induced liver injury reported”, respectively.
On to `Cc1c2oc3c(C)ccc(C(=O)N[C@@H]4C(=O)N[C@H](C(C)C)C(=O)N5CCC[C@H]5C(=O)N(C)CC(=O)N(C)[C@@H](C(C)C)C(=O)O[C@@H]4C)c3nc-2c(C(=O)N[C@@H]2C(=O)N[C@H](C(C)C)C(=O)N3CCC[C@H]3C(=O)N(C)CC(=O)N(C)[C@@H](C(C)C)C(=O)O[C@@H]2C)c(N)c1=O` [DACTINOMYCIN] (I: T[dV]P[Sar][NMeV] / II: T[dV]P[Sar][NMeV]; ester I:1-I:C, II:1-II:C; linker I:N-II:N via Actinocin(9to1)), for which the Hepatotoxicity entry with Hepatotoxicity [1], in the series on Hepatotoxicity [2] and with Hepatotoxicity [3] was “drug-induced liver injury reported” in each case.

Values taken from ChEMBL document CHEMBL1697731, “Cheminformatics analysis of assertions mined from literature that describe drug-induced liver injury in different species” (Chem Res Toxicol, 2010).
